Consider four compounds from paper PMC12730265, “Combinatorial Antimicrobial Effects of Imidazolium-Based Ionic Liquids and Antifungals on Model Fungal Organisms” (Biomolecules, 2025).

The structures appear in SMILES notation. Read-outs that look alike come from different tables or passages of the source.

Common to all, as to assay type: cell-based
The test system of test [1] is C. albicans. Briefly: MIC50 by microbroth dilution. As to conditions: Candida albicans, 48 h. The protocol:
(§1) A single colony was picked from each streak to prepare overnight in 5 mL fresh YPD broth and placed into a tilted rotating incubator set at 30 °C and 40 rpm overnight. After ~16–20 h, a fresh dilution in media (1:200) was made and used for the experiment. […] Finally, diluted culture was added to each well of a sterile 96-well plate containing serially diluted aliquots of each RTIL to a total volume of 100 µL. The plate was incubated at 30 °C overnight with shaking for 24 and 48 h. At both timepoints, the yeast was manually resuspended in the plate by pipetting and we measured the OD600 using a Spectramax M5 multimode plate reader (Molecular Devices, San Jose, CA, USA).
(§2) The four species of yeast tested included three common lab strains of non-pathogenic yeast strains, S. boulardii, S. cerevisiae, and S. pombe, and one common human pathogen, C. albicans.
(Dilution methods test growth across graded concentrations, often in twofold steps.)

Test [2] relates to S. boulardii. Briefly: MIC50 by microbroth dilution. As to conditions: Saccharomyces cerevisiae. As to the method: as §1, §2
Test [3] has as its system S. cerevisiae. Briefly: MIC50 by microbroth dilution. As to conditions: Saccharomyces cerevisiae. As to the method:
as §1, §2

The test system of test [4] is S. pombe. Briefly: MIC50 by microbroth dilution. As to conditions: Schizosaccharomyces pombe. The protocol: as §1, §2
Test [5] relates to S. cerevisiae. Briefly: Kirby–Bauer disk diffusion assay on IL-containing YPD plates. Particulars: 100 = no growth on plate. As to the method: (§3) Assessment of fungal growth on YPD plates with AFs + ILs served as an indicator for the combined efficacy of treatment of ILs and AFs. YPD agar plates were made with addition of increasing concentrations of [HMIM]Cl at 0, 2.5, 6.25, and 25 mM or [OMIM]Cl at 0, 0.25, 0.625, and 2.5 mM. Plates solidified and dried on bench for 24 h before use. IN total, 400 μL of S. cerevisiae or C. albicans liquid culture at mid-log phase OD600 0.5 was spread using sterile glass beads to achieve even distribution. Following addition of culture, the plates were allowed to dry for 30 min before the addition of antifungal disks. Antifungal-infused disks were prepared using the stock solutions of solubilized antibiotics; 15 μL of each of the 4 azole antifungals at stock concentrations was pipetted onto a sterile 6 mm cellulose disk (BD). […] After plate drying was complete, sterile forceps were used to transfer the disks to the media, and the plate was grown upright in an incubator overnight at 30 °C. The following day, photographs were taken of the plates to visualize the zone of inhibition (ZOI) created by the combined treatment. Adobe Illustrator 2023 CC was used to perform digital measurements of ZOI diameters.
(§4) To assess the potential for combinatorial effects of ILs and AFs in yeast, Kirby–Bauer disk diffusion assays were performed for C. albicans and S. cerevisiae for [HMIM]Cl and [OMIM]Cl with all four AFs. […] The addition of 6 mm cellulose disks infused with equal volumes of solubilized AFs to the plates occurred after plating of C. albicans or S. cerevisiae, allowing for growth for 48 h at 23 °C, at which point the plates were evaluated for the establishment of zones of inhibition (ZOI). Digital pictures were acquired of all plates, and measurements of ZOI diameter were performed digitally as described in the Methods. […] With progressively increasing amounts of both [HMIM]Cl and [OMIM]Cl, ZOIs increased for all Afs, including Fluconazole and Itraconazole, which appear to be ineffective without IL in the Kirby–Bauer disk assay. Experiments were performed in triplicate and ZOIs were measured for all plates.
Similar experiments testing the combinatorial effects of [HMIM]Cl or [OMIM]Cl were performed on S. cerevisiae using Kirby–Bauer disk assays and quantified for changes in ZOI (Appendix Figure A1). ZOI measurements (mm) from both C. albicans and S. cerevisiae were compiled, and the averages are shown numerically as well as with shading and plotted in Figure 3. […] Finally, at intermediate concentrations of both [HMIM]Cl and [OMIM]Cl, a combinatorial effect of IL + AF was evident for all four AFs in S. cerevisiae, similar to observations in C. albicans.
On the technique in general: A growth-free zone around the sample is the usual read-out of agar diffusion tests.

Test [6] concerns C. albicans. The description is as above. Particulars: for inhibition of C. albicans growth around disk: absence of added IL. The protocol: as §3, §4
The mark [7] stands for this setting: 50% growth after 48 h in YPD media, OD600, read-out: MIC50.

In the case of `OC(Cn1cncn1)(Cn1cncn1)c1ccc(F)cc1F` [Fluconazole], the MIC50 (as a rule, the lowest concentration that inhibits either 50% of growth or 50% of the strains tested, depending on the study) in test [1] (setting [7]) stood at 8 µg/mL; in test [2] (setting [7]), 4 µg/mL; in test [3] (setting [7]), 4 µg/mL; in test [4] (setting [7]) it was 4 µg/mL. For the same compound, the “Zone of inhibition (ZOI) diameter” value stood at 34 mm in test [5] ([HMIM]Cl 0 mM in plate); 36 mm in test [5] ([HMIM]Cl 2.5 mM in plate); 43.33 mm in test [5] ([HMIM]Cl 6.25 mM in plate); 100 mm in test [5] ([HMIM]Cl 25 mM in plate); 34 mm in test [5] ([OMIM]Cl 0 M in plate); 37.33 mm in test [5] ([OMIM]Cl 0.25 mM in plate). Further, the “Zone of inhibition (ZOI) diameter” value in test [5] ([OMIM]Cl 0.625 mM in plate) is reported as 69 mm; in test [5] ([OMIM]Cl 2.5 mM in plate), 100 mm; in test [6] ([HMIM]Cl 0 mM in plate) it was 0 mm; in test [6] ([HMIM]Cl 2.5 mM in plate), 0 mm; in test [6] ([HMIM]Cl 6.25 mM in plate), 31.33 mm; in test [6] ([HMIM]Cl 25 mM in plate) it was 47.33 mm. For the same compound, the “Zone of inhibition (ZOI) diameter” value stood at 0 mm in test [6] ([OMIM]Cl 0 M in plate), 0 mm in test [6] ([OMIM]Cl 0.25 mM in plate), 29.33 mm in test [6] ([OMIM]Cl 0.625 mM in plate) and 70.33 mm in test [6] ([OMIM]Cl 2.5 mM in plate). For the same compound, the “inhibition of C. albicans growth around disk” value in test [6] is “no inhibition”.

In the case of `CCC(C)n1ncn(-c2ccc(N3CCN(c4ccc(OCC5COC(Cn6cncn6)(c6ccc(Cl)cc6Cl)O5)cc4)CC3)cc2)c1=O` (stereo not shown) [Itraconazole], the MIC50 in test [1] (setting [7]) worked out at 1 µg/mL; in test [2] (setting [7]) it was 0.5 µg/mL; in test [3] (setting [7]) it was 0.5 µg/mL; in test [4] (setting [7]) it was 0.5 µg/mL. Besides, the “Zone of inhibition (ZOI) diameter” value turned out to be 8 mm in test [5] ([HMIM]Cl 0 mM in plate); 9.33 mm in test [5] ([HMIM]Cl 2.5 mM in plate); 14 mm in test [5] ([HMIM]Cl 6.25 mM in plate); 100 mm in test [5] ([HMIM]Cl 25 mM in plate); 8 mm in test [5] ([OMIM]Cl 0 M in plate); 9 mm in test [5] ([OMIM]Cl 0.25 mM in plate). For the same compound, the “Zone of inhibition (ZOI) diameter” value in test [5] ([OMIM]Cl 0.625 mM in plate) stood at 21.67 mm; in test [5] ([OMIM]Cl 2.5 mM in plate), 100 mm; in test [6] ([HMIM]Cl 0 mM in plate) it was 0 mm; in test [6] ([HMIM]Cl 2.5 mM in plate), 0 mm; in test [6] ([HMIM]Cl 6.25 mM in plate), 12.67 mm; in test [6] ([HMIM]Cl 25 mM in plate), 16 mm. Besides, the “Zone of inhibition (ZOI) diameter” value was found to be 0 mm in test [6] ([OMIM]Cl 0 M in plate), 0 mm in test [6] ([OMIM]Cl 0.25 mM in plate), 16.33 mm in test [6] ([OMIM]Cl 0.625 mM in plate) and 26.33 mm in test [6] ([OMIM]Cl 2.5 mM in plate). Moreover, the “inhibition of C. albicans growth around disk” value in test [6] is given as “no inhibition”.

Regarding `CC(=O)N1CCN(c2ccc(OCC3COC(Cn4ccnc4)(c4ccc(Cl)cc4Cl)O3)cc2)CC1` (stereo not shown) [Ketoconazole], the MIC50 turned out to be 1 µg/mL in test [1] (setting [7]), 0.5 µg/mL in test [2] (setting [7]), 0.5 µg/mL in test [3] (setting [7]) and 0.5 µg/mL in test [4] (setting [7]). Moreover, the “Zone of inhibition (ZOI) diameter” value in test [5] ([HMIM]Cl 0 mM in plate) worked out at 25 mm; in test [5] ([HMIM]Cl 2.5 mM in plate) it was 27.33 mm; in test [5] ([HMIM]Cl 6.25 mM in plate), 63 mm; in test [5] ([HMIM]Cl 25 mM in plate), 100 mm; in test [5] ([OMIM]Cl 0 M in plate), 25 mm; in test [5] ([OMIM]Cl 0.25 mM in plate), 29.67 mm. Also, the “Zone of inhibition (ZOI) diameter” value in test [5] ([OMIM]Cl 0.625 mM in plate) is listed as 57.33 mm; in test [5] ([OMIM]Cl 2.5 mM in plate), 100 mm; in test [6] ([HMIM]Cl 0 mM in plate), 13.67 mm; in test [6] ([HMIM]Cl 2.5 mM in plate) it was 17 mm; in test [6] ([HMIM]Cl 6.25 mM in plate), 29 mm; in test [6] ([HMIM]Cl 25 mM in plate) it was 47.67 mm. Moreover, the “Zone of inhibition (ZOI) diameter” value in test [6] ([OMIM]Cl 0 M in plate) is 13.67 mm; in test [6] ([OMIM]Cl 0.25 mM in plate) it was 19.33 mm; in test [6] ([OMIM]Cl 0.625 mM in plate), 28 mm; in test [6] ([OMIM]Cl 2.5 mM in plate) it was 57.33 mm. In addition, the “inhibition of C. albicans growth around disk” value in test [6] is reported as “minimal inhibition”.

In the case of `CCn1cc[n+](C)c1` [[EMIM]Cl, 1-ethyl-3-methylimidazolium chloride], the MIC50 in test [1] is greater than 100 mM; in test [2] (48 h) it was 25 mM; in test [3] (48 h), 50 mM; in test [4] (48 h), 50 mM.
